These results are taken from patent US11801232B2, “Targeting of ARID1A-deficient cancers by inhibiting de novo pyrimidine synthesis pathway” (YALE UNIVERSITY, priority 2019, dated 2023).

For experiment [1], the system named is ES2 ARID1A-knockdown cells (shARID1A). Kind of experiment: Cell growth after 72 h drug treatment, ARID1A-knockdown versus control cells. The class given is cell-based, human. The conditions noted are these: 72 h treatment; compared to untransfected or shCon ES2 cells. How it is done:
Short Hairpin RNA (shRNA)-Mediated Knockdown and Expression of ARID1A in ovarian and endometrial carcinoma cells. shRNA lentiviral supernatants were produced using standard protocols, as previously described^8. Vectors were transfected into HEK293FT cells using X-tremeGENE 9 DNA Transfection Reagent (from Roche). Retroviral supernatants isolated at 48 h were diluted 1:1 in culture medium and used to infect ARID1A-wildtype ES2 and KLE cell lines. Stably transfected subclones were expanded using puromycin (from Dot Scientific) drug selection. For expression of ARID1A in the ARID1A-mutant HEC-1-A cell line, pCIN4-HA-ARID1A was transfected using X-tremeGENE 9 DNA Transfection Reagent (from Roche), followed by selection with G418 (from Gibco). For expression of ARID1A in the ARID1A-mutant SKOV3 and OVISE cell lines, V5/His-tagged pLenti-puro-LacZ and pLenti-puro-ARID1A were transfected using lentivirus. […]
Cytotoxicity assay. […] Cell number was determined using a sulforhodamine B (SRB) assay, as previously described^23. […] After washing, protein-bound dye was solubilized with 10 mM unbuffered Tris-base solution (pH 10.5) and detected at 510 nm using a microplate reader. Percentage of cell-growth was calculated using the following formula: % cell growth=[(Absorbance sample)/(Absorbance untreated)]×100 […]

The subject of experiment [2] is γ-H2AX. The experiment is described as follows: Immunoblot and immunofluorescence of γ-H2AX in ES2 cells. The experiment is classed as cell-based, human. The conditions noted are these: ARID1A-knockdown ES2 cells; teriflunomide 15 μM, AZD6738 1.5 μM, VX-970 0.075 μM; 24-72 h. How it is done: Immunoblot Analysis and Co-Immunoprecipitation Assay. For immunoblotting experiments, cells were lysed in BC200 lysis buffer [20 mM Tris-HCl (pH 7.5), 200 mM NaCl, 1 mM EDTA, 0.2% Nonidet P-40 (NP-40), freshly added complete protease inhibitor cocktail (from Roche), and PhosSTOP phosphatase inhibitor (from Roche)] or in boiling SDS lysis buffer [1% SDS and 10 mM Tris-CI (pH 7.5)], as previously described^21. Protein concentrations were quantified using a modified Lowry assay, and equal protein amounts were loaded onto a 10% SDS-PAGE gel and separated by gel electrophoresis, followed by transfer to a nitrocellulose membrane. The nitrocellulose membrane was stained with Ponceau S to confirm equal protein loading and then blocked in 2% BSA in Tris-buffered saline with 0.1% Tween-20 (tris buffered saline with tween, or TBST). Primary antibody incubation was done for 2 h at room temperature or, for phospho-specific antibodies, overnight at 4° C. An HRP-conjugated secondary antibody was used, followed by detection using enhanced chemiluminescence substrate (from Pierce). Autoradiograph images were scanned and saved as unmodified TIFF images, and densitometry analysis was done with ImageJ (from NIH) software.
Immunofluorescence. […] Images of cells were acquired using a BZ-X710 fluorescence microscope (from KEYENCE) and analyzed using ImageJ (from NIH).
On the technique in general: A western blot detects proteins with antibodies after separation by electrophoresis.

The subject of experiment [3] is ES2-shScrambled (SCR) cells. The experiment is described as follows: Cytotoxicity (SRB) assay with CalcuSyn combination analysis. The class given is cell-based. The following applies: Homo sapiens, Table 2, VX970 alone, read-out: Dm. How it is done: (§1) Short Hairpin RNA (shRNA)-Mediated Knockdown and Expression of ARID1A in ovarian and endometrial carcinoma cells. shRNA lentiviral supernatants were produced using standard protocols, as previously described^8. Vectors were transfected into HEK293FT cells using X-tremeGENE 9 DNA Transfection Reagent (from Roche). Retroviral supernatants isolated at 48 h were diluted 1:1 in culture medium and used to infect ARID1A-wildtype ES2 and KLE cell lines. Stably transfected subclones were expanded using puromycin (from Dot Scientific) drug selection. For expression of ARID1A in the ARID1A-mutant HEC-1-A cell line, pCIN4-HA-ARID1A was transfected using X-tremeGENE 9 DNA Transfection Reagent (from Roche), followed by selection with G418 (from Gibco). For expression of ARID1A in the ARID1A-mutant SKOV3 and OVISE cell lines, V5/His-tagged pLenti-puro-LacZ and pLenti-puro-ARID1A were transfected using lentivirus. Lentivirus was produced using HEK293FT cells with the second-generation packaging system pSPAX2 (Addgene plasmid) and pMD2.G (Addgene plasmid). Stably transfected subclones were expanded using puromycin and blasticidin (Gibco) drug selection.
(§2) Cytotoxicity assay. Cells were seeded in 96-well plates, with 2000 cells in 100 μL/well, and cultured for 24 h. The cells were treated with serial dilutions of drugs or without drug for an additional 72 h. Cell number was determined using a sulforhodamine B (SRB) assay, as previously described^23. Briefly, cells were fixed with 20% trichloroacetic acid (TCA), air-dried, and stained with 0.4% SRB dissolved in 1% acetic acid. After washing, protein-bound dye was solubilized with 10 mM unbuffered Tris-base solution (pH 10.5) and detected at 510 nm using a microplate reader. Percentage of cell-growth was calculated using the following formula: % cell growth=[(Absorbance sample)/(Absorbance untreated)]×100
(§3) Using CalcuSyn software (Biosoft), dose-effect curves were generated, and drug concentrations corresponding to a 50% decrease in cell number (IC50) were determined.
(§4) Drug concentrations corresponding to a median effect (Dm) are shown for each treatment; teriflunomide concentration is shown for combination (Combo) treatment at a 10:1 fixed molar ratio of two drugs, teriflunomide and AZD6738. […] Datasets from at least three independent experiments were combined, and each table cell contains the mean value±SD. SCR, ES2-shScrambled. N/A, not applicable. Statistical analysis was carried out by one-way ANOVA with Bonferroni's post-hoc test, and differences were considered significant at **P<0.01 and ***P<0.001 as compared to the ES2 parental group with the same drug treatment.
(§5) Drug concentrations (in μM for teriflunomide, in nM for […]) corresponding to median effect (Dm) are shown for each treatment; teriflunomide concentration is shown for combination (Combo) treatment at a 200:1 fixed molar ratio of the two drugs, teriflunomide and VX-970. […] CIwt<0.8, =0.8 to 1.2, and >1.2 indicates synergism, an additive effect, and antagonism, respectively. CIwt value was calculated using the formula: CIwt=(ED50+2ED75+3ED90)/6. Datasets from at least three independent experiments were combined, and each table cell contains the mean value±SD. Teri, teriflunomide. SCR, ES2-shScrambled. N/A, not applicable. Statistical analysis was carried out by one-way ANOVA with Bonferroni's post-hoc test, and differences were considered significant at ***P<0.001 as compared to the ES2 parental group with the same drug treatment.

Experiment [4] concerns ES2 shARID1A (a) cells. The description is as above. The class given is cell-based. The following applies: Homo sapiens, Table 2, VX970 alone, read-out: Dm. How it is done: as §1, §2, §3, §4, §5
Experiment [5] relates to ES2 shARID1A (b) cells. The description is as above. The following applies: Homo sapiens, Table 2, VX970 alone, read-out: Dm. The experiment is classed as cell-based. How it is done: as §1, §2, §3, §4, §5
The test system of experiment [6] is ES2 cells. The description is as above. The class given is cell-based. The following applies: Homo sapiens, ES-2, Table 2; ES2 parental; VX970 alone; read-out: Dm. How it is done:
as §2, with “untreated)]×100 […] Datasets from at least three independent experiments were combined, and each table cell contains the mean value±SD. SCR, ES2-shScrambled. N/A, not applicable. Statistical analysis was carried out by one-way ANOVA with Bonferroni's post-hoc test, and differences were considered significant at **P<0.01 and ***P<0.001 as compared to the ES2 parental group with the same drug treatment. […] CIwt value was calculated using the formula: […] Datasets from at least three independent experiments were combined, and each table cell contains the mean value±SD. Teri, teriflunomide. SCR, ES2-shScrambled. N/A, not applicable. Statistical analysis was carried out by one-way ANOVA with Bonferroni's post-hoc test, and differences were considered significant at ***P<0.001 as compared to the ES2 parental group with the same drug treatment.” for “untreated)]×100”

Experiment [7] has as its system ARID1A-knockout HCT116 cells. Kind of experiment: Cell growth after 72 h drug treatment, ARID1A-knockout versus wild-type cells. The following applies: 72 h treatment; compared to ARID1A wild-type HCT116 control cells. The class given is cell-based, human. On the procedure:
Cell Lines. Adherent cell lines were cultured in RPMI 1640 (from Gibco) supplemented with 10% fetal bovine serum (from Gibco) and 1% penicillin-streptomycin (from Gibco) at 37° C., 5% CO2. Low-passage-number cells were used, and all cell lines tested negative for mycoplasma using the MycoAlert Mycoplasma Detection Kit (from Lonza). The following ovarian and endometrial cancer cell lines were used: ES26, KLE5, SKOV3, OVISE (from JCRB Cell Bank), and HEC-1-A5 cells and their stably transfected subclones, as described below. Cell lines were authenticated using the GenePrint10 kit (form Promega) and matching to their original profiles (at ATCC). ARID1A protein expression status was confirmed by immunoblotting. HEK293FT cells were from Thermo Fisher Scientific. ARID1A-knockout HCT116 (homozygous truncating mutations, Q456*/Q456*) and ARID1A-wildtype HCT116 colorectal carcinoma cells were from Horizon Discovery.
Cytotoxicity assay. Cells were seeded in 96-well plates, with 2000 cells in 100 μL/well, and cultured for 24 h. […] Cell number was determined using a sulforhodamine B (SRB) assay, as previously described^23. […] After washing, protein-bound dye was solubilized with 10 mM unbuffered Tris-base solution (pH 10.5) and detected at 510 nm using a microplate reader. Percentage of cell-growth was calculated using the following formula: % cell growth=[(Absorbance sample)/(Absorbance untreated)]×100 […]

Turning to `CCc1cncnc1N1CCN(Cc2nc3ccc(C(F)(F)F)cc3[nH]2)CC1` [PF-4708671], the “Drug sensitivity of ARID1A-knockdown ES2 cells” value in experiment [1] was “significantly hypersensitive”.
Regarding `CNCc1ccc(-c2cc(-c3nc(-c4ccc(S(=O)(=O)C(C)C)cc4)cnc3N)on2)cc1` [VX-970], the γ-H2AX protein levels entry in experiment [2] is “increased”. Further, the IC50 in experiment [3] was 170 ± 9.24 nM; in experiment [4] it was 54.3 ± 1.31 nM; in experiment [5], 63.3 ± 10.4 nM; in experiment [6] it was 165 ± 3.84 nM. The “Drug sensitivity of ARID1A-knockout HCT116 cells” value in experiment [7] is on record as “more sensitive”.
